Measurements from patent publication US12414960B2, “Analogues of oleuropein and oleacein and uses thereof” (Attica Sciences Ltd., priority 2020, dated 2025).

Tests used:
[1] = Deoxyribose degradation assay (hydroxyl radical scavenging); assay type: biochemical; conditions: NS = not statistically significant
Method: The hydroxyl radical (OH.) is an extremely reactive in biological systems and has been implicated as highly damaging species in free radical pathology, capable of damaging biomolecules of the living cells. These radical combines with nucleotides in DNA and cause strand breakage leading to carcinogenesis, mutagenesis and cytotoxicity. Hydroxyl radical (OH.) scavenging capacity of an extract is directly related to its antioxidant activity.
The effect of extracts on hydroxyl radicals was assayed by using the deoxyribose method. 2-Deoxyribose is degraded on exposure to hydroxyl radicals generated by Fenton's reaction. The ability to neutralize the OH. is estimated as the rate of inhibition of the oxidation of 2-deoxyribose by the OH. (FIG. 5).
The measurement of the hydroxyl radical scavenging activity was evaluated for each of the GS compound by evaluating the pink chromogen absorption at 532 nm by spectrophotometry as described previously (Perjesi, Pal et al., Open Med Chem J., 2011, 5: 61-67

[2] = test system: MDA-MB-231 triple negative breast cancer cells; assay: XTT cell growth assay, MDA-MB-231; assay type: cell-based, human; conditions: NS = not statistically significant; for inhibition at 50 µM: Homo sapiens, MDA-MB-231, 24 h, read-out: Effectiveness to suppress MDA-MB-231 cell growth (cell growth inhibition); for Effectiveness to suppress MDA-MB-231 cell growth (cell growth inhibition): 50 uM, 24 h
Excerpt: (§1) The XTT assay is used to measure cellular metabolic activity as an indicator of cell viability, proliferation and cytotoxicity. This non-radioactive, colorimetric assay system was first described by Scudiero, et al. in 1988 (Paull, Kenneth D. et al., J Heterocycl Chem, 1988, 25: 911-914; Scudiero, Dominic A. et al., Cancer Res, 1988, 48: 4827-4833) and improved in subsequent years by several other investigators (Weislow, Owen S. et al., J Natl Cancer Inst, 1989, 81(8): 577-586; Roehm, N. W. et al., J Immunol Methods, 1991, 142: 257-265).
(§2) The XTT assay is based on the reduction of a yellow tetrazolium salt (sodium 3′-[1-(phenylaminocarbonyl)-3,4-tetrazolium]-bis (4-methoxy6-nitro) benzene sulfonic acid hydrate or XTT) to an orange formazan dye by metabolically active cells (FIG. 8). The formazan dye formed is soluble in aqueous solutions and is directly quantified using a scanning multiwell spectrophotometer (ELISA reader). An increase in number of living cells results in an increase in the overall activity of mitochondrial dehydrogenases in the sample. This increase directly correlates to the amount of orange formazan formed, as monitored by the absorbance. Reduced number of living cells leads to reduced metabolism of quaternary salt and therefore reduced absorption.
(§3) Cell viability was assessed using the XTT assay kit (Roche, Mannheim, Germany) as described previously (Kouka, Paraskevi et al., Oxid Med Cell Longev. 2019, Article ID 1870965). Briefly, cancer cells per well were cultured in a 96-well plate in Dulbecco's modified Eagle's medium (DMEM). Following a 24 h incubation, 5, 10 and 50 μM of the tested GS compound was diluted in a serum-free DMEM and administered for 24 h. Subsequently, 50 μL of the XTT reagent (50:1) was added to each well. After 4 h of incubation, the absorbance was monitored at 450 nm and also at 630 nm as a reference wavelength in a BioTek ELx800 microplate reader (BioTek Instruments Inc., Winooski, VT, USA). As a negative control, samples containing serum-free DMEM only were used.
MDA-MB-231 is a human epithelial breast cancer cell line that was established from a pleural effusion of a person with a metastatic mammary adenocarcinomal and is one of the most commonly used breast cancer cell lines in medical research laboratories.
(§4) The effects of exemplary compounds on cancer cell lines and one non-tumorigenic cell line (control) were investigated using a high throughput screening assay. More specifically, the effects of the GS compounds on cell growth was evaluated by the XTT assay for cell lines HepG2, HeLa, MCF7 ER+, MDA-MB-231, and MKN-45, and by the Cell Glo luminescence assay for cell lines MIA PaCa-2, HCT-116, MCF-10A, and PANC-1.

[3] = test system: HeLa cervical cancer cells; assay: XTT cell growth assay, HeLa; assay type: cell-based, human; conditions: Homo sapiens, HeLa, 24 h, NS = not statistically significant, read-out: Effectiveness to suppress HeLa cell growth (cell growth inhibition)
Excerpt: as §1, §2, §3
HeLa is a human immortal cell line used in scientific research. It is the oldest and most commonly used human cell line. The line was derived from cervical cancer cells taken on Feb. 8, 1951 from Henrietta Lacks, a patient who died of cancer on Oct. 4, 1951.
as §4

[4] = test system: MIA PaCa-2 pancreatic cancer cells; assay: Cell Glo luminescence cell growth assay, MIA PaCa-2; assay type: cell-based, human; conditions: Homo sapiens, MIA PaCa-2, 24 h, NS = not statistically significant, read-out: Effectiveness to suppress MIA PaCa-2 cell growth (cell growth inhibition)
Excerpt: (§5) The CellTiter-Glo® Luminescent Cell Viability Assay (Promega Corporation; Madison, WI) is a homogeneous method of determining the number of viable cells in culture based on quantitation of the ATP present, an indicator of metabolically active cells. The homogeneous assay procedure involves adding the single reagent (CellTiter-Glo® Reagent) directly to cells cultured in serum-supplemented medium. The homogeneous “add-mix-measure” format results in cell lysis and generation of a luminescent signal proportional to the amount of ATP present. The amount of ATP is directly proportional to the number of cells present in culture.
(§6) Cancer cells (3,000 cells/well) were harvested in a 96-well plate. Then, the cancer cells were treated with GS compounds and incubated for 24 hours. The MT Cell Viability Substrate, NanoLuc® Enzyme and cell culture medium was equilibrated to 37° C. The 2× RealTime-Glo™ reagent was prepared by diluting the MT Cell Viability Substrate and NanoLuc® Enzyme in 37° C. cell culture medium to a 2× concentration for each reagent. For example, 1 mL of 2× RealTime-Glo™ reagent was prepared by adding 2 μL of MT Cell Viability Substrate, 1,000×, and 2 μL of NanoLuc® Enzyme, 1,000×, to 996 μL of cell culture medium to form the 2× RealTime-Glo™ reagent. Then, an equal volume of 2× RealTime-Glo™ reagent was added to the cancer cells. The cells were kept for ˜20 minutes in the cell culture incubator and then luminescence was measured by using a plate-reading luminometer.
MIA PaCa-2 is a human pancreatic ductal adenocarcinoma cell line derived from the carcinoma of a person.
as §4

[5] = test system: MCF-7 ER+ breast cancer cells; assay: XTT cell growth assay, MCF-7 ER+; assay type: cell-based, human; conditions: Homo sapiens, MCF7, 24 h, NS = not statistically significant, read-out: Effectiveness to suppress MCF7 cell growth (cell growth inhibition)
Excerpt: as §1, §2, §3
MCF-7 ER+ is a human breast cancer cell line isolated in 1970 from a person. Prior to MCF-7, it was not possible for cancer researchers to obtain a mammary cell line that was capable of living longer than a few months.
as §4

[6] = test system: MKN-45 gastric cancer cells; assay: XTT cell growth assay, MKN-45; assay type: cell-based, human; conditions: Homo sapiens, MKN-45, 24 h, NS = not statistically significant, read-out: Effectiveness to suppress MKN-45 cell growth (cell growth inhibition)
Excerpt: as §1, §2, §3
MKN-45 is a human gastric adenocarcinoma, established from the poorly differentiated adenocarcinoma of the stomach (medullary type) of a person.
as §4

[7] = test system: HCT-116 colon cancer cells; assay: Cell Glo luminescence cell growth assay, HCT-116; assay type: cell-based, human; conditions: NS = not statistically significant; for Effectiveness to suppress HCT-116 cell growth (cell growth inhibition): 1 uM, 24 h; for inhibition at 1 µM: Homo sapiens, HCT-116, 24 h, read-out: Effectiveness to suppress HCT-116 cell growth (cell growth inhibition)
Excerpt: as §5, §6
HCT-116 is a human colorectal cancer cell lines that has a mutation in RAS proto-oncogene.
as §4

Deoxyribose Degradation Assay IC50 [1] | SMILES | inhibition at 50 µM [2] | inhibition at 50 µM [3] | inhibition at 50 µM [4] | inhibition at 50 µM [5] | inhibition at 50 µM [6] | Effectiveness to suppress HCT-116 cell growth (cell growth inhibition) [7] | inhibition at 1 µM [7] | Effectiveness to suppress MDA-MB-231 cell growth (cell growth inhibition) [2]
17.6 μg extract/mL | C/C=C(/C=O)[C@@H](CC=O)CC(=O)OCC12CC3CC(CC(C3)C1)C2 [GS23, (3S,4E)-4-formyl-3-(2-oxoethyl)hex-4-enoic acid adamantan-1-ylmethyl ester] | 42.7% | 25.2% | 15% | 64.7% |  |  |  | 
 | C/C=C1/[C@H](OC2OC(CO)C(O)C(O)C2O)OC=C(C(=O)O)[C@H]1CC(=O)OCCOc1ccccc1 (stereo in doubt) [GS10, (2S,4S,E)-3-ethylidene-4-(2-oxo-2-(2-phenoxyethoxy)ethyl)-2-{[(2R,3S,4R,5R,6S)-3,4,5-trihydroxy-6-(hydroxymethyl)tetrahydro-2H-pyran-2-yl]oxy}-3,4-dihydro-2H-pyran-5-carboxylic acid] | 14% | 33.5% | 22% | 58.7% | 31.9% | suppressive activity | 25.7% | 
 | C/C=C1/[C@H](OC2OC(CO)C(O)C(O)C2O)OC=C(C(=O)O)[C@H]1CC(=O)OCC12CC3CC(CC(C3)C1)C2 (stereo in doubt) [GS3, (2S,4S,E)-4-(2-(adamantan-1-ylmethoxy)-2-oxoethyl)-3-ethylidene-2-{[(2R,3S,4R,5R,6S)-3,4,5-trihydroxy-6-(hydroxymethyl)tetrahydro-2H-pyran-2-yl]oxy}-3,4-dihydro-2H-pyran-5-carboxylic acid] | 64.7% |  |  |  |  |  |  | 
 | C/C=C1/[C@H](OC2OC(CO)C(O)C(O)C2O)OC=C(C(=O)O)[C@H]1CC(=O)SCCc1ccccc1 (stereo in doubt) [GS11, (2S,4S,E)-3-ethylidene-4-(2-oxo-2-(phenethylthio)ethyl)-2-{[(2R,3S,4R,5R,6S)-3,4,5-trihydroxy-6-(hydroxymethyl)tetrahydro-2H-pyran-2-yl]oxy}-3,4-dihydro-2H-pyran-5-carboxylic acid] | 74.3% | 14.4% | 50% | 57.8% |  | suppressive activity | 32.9% | highest suppressive activity
 | C/C=C1/[C@H](OC2OC(CO)C(O)C(O)C2O)OC=C(C(=O)O)[C@H]1CC(=O)O (stereo in doubt) [GS2, (2S,4S,E)-4-(carboxymethyl)-3-Ethylidene-2-{[(2R,3S,4R,5R,6S)-3,4,5-trihydroxy-6-(hydroxymethyl)tetrahydro-2H-pyran-2-yl]oxy}-3,4-dihydro-2H-pyran-5-carboxylic acid] | 41.8% | 24.4% |  |  |  |  |  | 
 | C/C=C1/[C@H](OC2OC(CO)C(O)C(O)C2O)OC=C(C(=O)O)[C@H]1CC(=O)OCc1cc2ccccc2[nH]1 (stereo in doubt) [GS8, (2S,4S,E)-4-(2-((1H-indol-2-yl)methoxy)-2-oxoethyl)-3-ethylidene-2-{[(2R,3S,4R,5R,6S)-3,4,5-trihydroxy-6-(hydroxymethyl)tetrahydro-2H-pyran-2-yl]oxy}-3,4-dihydro-2H-pyran-5-carboxylic acid] | 22.5% | 38.2% |  |  |  |  |  | 
 | C/C=C1/[C@H](OC2OC(CO)C(O)C(O)C2O)OC=C(C(=O)O)[C@H]1CC(=O)OCCc1ccc(O)cc1 (stereo in doubt) [GS7, (2S,4S,E)-3-ethylidene-4-(2-(4-hydroxyphenethoxy)-2-oxoethyl)-2{[(2R,3 S,4R,5R,6S)-3,4,5-trihydroxy-6-(hydroxymethyl)tetrahydro-2H-pyran-2-yl]oxy}-3,4dihydro-2H-pyran-5-carboxylic acid] | 32.7% |  |  |  |  |  |  | 
 | C/C=C1/[C@H](OC2OC(CO)C(O)C(O)C2O)OC=C(C(=O)O)[C@H]1CC(=O)OCCC1CCCCC1 (stereo in doubt) [GS5, (2S,4S,E)-4-(2-(2-cyclohexylethoxy)-2-oxoethyl)-3-ethylidene-2-{[(2R,3S,4R,5R,6S)-3,4,5-trihydroxy-6-(hydroxymethyl)tetrahydro-2H-pyran-2-yl]oxy}-3,4-dihydro-2H-pyran-5-carboxylic acid] | 33.6% |  |  |  |  |  |  | 
 | C/C=C1/[C@H](OC2OC(CO)C(O)C(O)C2O)OC=C(C(=O)O)[C@H]1CC(=O)OCCCSC (stereo in doubt) [GS9, (2S,4S,E)-3-ethylidene-4-(2-(3-(methylthio)propoxy)-2-oxoethyl)-2-{[(2R,3S,4R,5R,6S)-3,4,5-trihydroxy-6-(hydroxymethyl)tetrahydro-2H-pyran-2-yl]oxy}-3,4-dihydro-2H-pyran-5-carboxylic acid] | 71.2% | 20% | 55% | 11.6% |  | suppressive activity | 41.7% | highest suppressive activity
